In PubChem BioAssay (NCI):
Where “and” joins values, the source holds several entries; their conditions need not be identical. Equal values may be shown once.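 Each compound was tested at five concentrations against cells in 96-well plates for 48 hours. GI50: concentration for 50% inhibition of growth. TGI marks complete inhibition of growth.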

What was measured:
Test in all cases: DTP human tumour cell line panel, 48 h
[1] = system: COLO 205 colon
[2] = system: HCC-2998 colon
[3] = system: HT29 colon
[4] = system: K-562 leukemia
[5] = system: LOX IMVI melanoma
[6] = system: NCI-H23 lung
[7] = system: SF-539 CNS
[8] = system: UACC-257 melanoma
[9] = system: BT-549 breast
[10] = system: MDA-MB-435

| Compound | GI50 [1] [µM] | TGI [1] [µM] | GI50 [2] [µM] | TGI [2] [µM] | GI50 [3] [µM] | TGI [3] [µM] | GI50 [4] [µM] | TGI [4] [µM] | GI50 [5] [µM] | TGI [5] [µM] | GI50 [6] [µM] | TGI [6] [µM] | GI50 [7] | TGI [7] [µM] | GI50 [8] [µM] | TGI [8] [µM] | GI50 [9] [µM] | TGI [9] [µM] | GI50 [10] [µM] | TGI [10] [µM] |
| --- | --- | --- | --- | --- | --- | --- | --- | --- | --- | --- | --- | --- | --- | --- | --- | --- | --- | --- | --- | --- |
| Cc1[cH-]c(=O)n(-c2ccccc2)n1.[Au+].[Au].c1ccc([PH+](c2ccccc2)c2ccccc2)cc1.c1ccc([PH+](c2ccccc2)c2ccccc2)cc1 | 25.3 | 60.6 | > 100 | > 100 | 53.5 | > 100 | 34.7 | > 100 | 18 | 46.8 | 9.75 | 46.1 | 2.38 µM and 10.4 µM | 33.4 | 25.4 | 91.3 | – | – | – | – |
| Cc1cc(Nc2ccc(C)c(Cl)c2)n2nc(C(F)(F)F)nc2n1 | 23.5 | 70.1 | 40.8 | > 100 | 26.6 | > 100 | 16 | > 100 | 26.5 | 73.9 | 29.4 | > 100 | 19.1 µM | 39 | – | – | 22.9 | 57.4 | 19 | 55.6 |
| C=C1C(=O)O[C@H]2[C@H]1CC/C(CNC(=O)c1cc3ccccc3[nH]1)=C\CC[C@@]1(C)O[C@@H]21 | 1.16 | 2.6 | 1.85 | 3.38 | 1.11 | 3.09 | 0.642 | 4.92 | 0.58 | 1.99 | 1.68 | 4.26 | 1.61 µM | 3.16 | – | – | 1.69 | 3.34 | 1.58 | 4.63 |
| CN1C(=O)C(=O)N2c3ccc(Cl)cc3C3(c4ccccc4)N=CC12O3 (stereo not given) | – | 15 | – | 28.4 | – | 16.1 | – | 19.9 | – | – | – | 15.5 | – | 14.6 | – | 19 | – | – | – | – |
| COc1cc2c(cc1OC)-c1cc(OC)c(OC)cc1C(CN(C)C)C2 (stereo not given) | – | – | > 10 | > 10 | > 10 | > 10 | > 10 | > 10 | > 10 | > 10 | > 10 | > 10 | > 10 µM | > 10 | > 10 | > 10 | > 10 | > 10 | > 10 | > 10 |
| O=c1[nH]c(-c2ccccc2)nc2cc(Cl)ccc12 | – | – | – | > 100 | – | > 100 | – | > 100 | – | – | – | > 100 | – | > 100 | – | > 100 | – | – | – | – |
| N#CC(C(=O)CCC(=O)Nc1ccc(Cl)c(Cl)c1)c1ccccc1 (stereo not given) | – | – | – | > 100 | – | > 100 | – | > 100 | – | – | – | > 100 | – | > 100 | – | > 100 | – | – | – | – |
| CC(=O)OCc1ccc2c(c1)C(O)NC(=O)O2 (stereo not given) | – | > 100 | – | – | – | > 100 | – | > 100 | – | > 100 | – | > 100 | – | > 100 | – | > 100 | – | > 100 | – | > 100 |
| CCCOc1nc(N)c2cnn(C3CCCCO3)c2n1 (stereo not given) | – | > 100 | – | > 100 | – | > 100 | – | > 100 | – | – | – | > 100 | – | > 100 | – | > 100 | – | – | – | – |
| O=C(NC1C=CCC2C(=O)N(c3ccccc3)C(=O)C12)OCc1ccccc1 (stereo not given) | – | > 100 | – | > 100 | – | > 100 | – | > 100 | – | > 100 | – | > 100 | – | > 100 | – | > 100 | – | – | – | – |
| O=C1C(C(Nc2ccccc2)c2ccccc2)=C([O-])c2ccccc21.O=C1C(C(Nc2ccccc2)c2ccccc2)=C([O-])c2ccccc21.[Cu+2] (stereo not given) | 32.1 | > 100 | – | – | 33.1 | > 100 | 28.6 | > 100 | 46.6 | > 100 | 24.9 | > 100 | 30.6 µM | > 100 | > 100 | > 100 | – | – | – | – |
| CN(C)CC1CCC/C1=N/OC(=O)c1ccccc1 (stereo not given) | – | > 100 | – | > 100 | – | > 100 | – | > 100 | – | > 100 | – | > 100 | – | > 100 | – | > 100 | – | – | – | – |
| CC1(C)CC(c2c[nH]c3ccccc23)=CC2=Nc3ccccc3C21O (stereo not given) | – | > 100 | – | – | – | > 100 | – | > 100 | – | > 100 | – | > 100 | – | > 100 | – | > 100 | – | – | – | – |
| O=S1C(=c2ccc(=C3Sc4ccccc4S3)cc2)Sc2ccccc21 (stereo not given) | – | > 100 | – | 30.3 | – | 49.2 | – | > 100 | – | 32.2 | – | 30.2 | – | 30.5 | – | > 100 | – | – | – | – |
| COC1=CC(=O)C(C2(OC(C)C)OC(=O)C(Cl)=C2Cl)=CC1=O (stereo not given) | – | > 100 | – | > 100 | – | > 100 | – | 10.8 | – | > 100 | – | > 100 | – | > 100 | – | > 100 | – | – | – | > 100 |
| [O-][Cl+3]([O-])([O-])[O-].[O]=[Ru]=[O].c1ccc(-c2ccccn2)nc1.c1ccc(-c2ccccn2)nc1 | > 100 | > 100 | 88.6 | > 100 | > 100 | > 100 | > 100 | > 100 | 56.8 | > 100 | > 100 | > 100 | > 100 µM | > 100 | > 100 | > 100 | – | – | – | – |
| O=c1c2cccnc2ncn1CCN1CCCCC1 | – | > 100 | – | > 100 | – | > 100 | – | > 100 | – | > 100 | – | > 100 | – | > 100 | – | – | – | – | – | – |
| CCC(C)SC1SCC2C(=O)N(C)C3(CC3C)C(=O)OCC(NC(=O)c3nc4ccccc4cc3O)C(=O)NC(C)C(=O)N(C)C1C(=O)N(C)C1(CC1C)C(=O)OCC(NC(=O)c1nc3ccccc3cc1O)C(=O)NC(C)C(=O)N2C (stereo not given) | – | 0.000194 | – | 0.000369 | 1.48e-05 | 0.00788 | – | – | – | 0.000122 | – | 0.000154 | – | 0.000317 | – | 0.000219 | – | 0.000693 | – | 0.00019 |
| Cc1ccc(NC2=C3CCCCC3OC2=O)cc1 (stereo not given) | 78.1 | > 100 | > 100 | > 100 | 79.8 | > 100 | 45.1 | > 100 | – | – | 60.5 | > 100 | > 100 µM | > 100 | 63.1 | > 100 | > 100 | > 100 | 55.2 | > 100 |
